In US10081635B2, “Substituted N-(pyrrolidine-3-yl)-7H-pyrrolo[2,3-D]pyrimidine-4-amine as janus kinase inhibitor” (YANG JI CHEMICAL CO., LTD., priority 2014, dated 2018) one finds inhibition data, which are given here for 18 compounds.

What all share (type): biochemical
One test addresses Human TYK2 (Homo sapiens (Human), UniProt P29597). The test is described as follows: In vitro kinase inhibition test, TYK2 (33P-ATP filter scintillation). To be noted: compound at 1 uM; read-out: TYK2 kinase-phosphorylation inhibitory level (% inhibition). The procedure:
(§1) 1. In Vitro Kinase Inhibition Test
(§2) Kinases used were human-derived JAK1, JAK2, JAK3, and TYK2 (Millipore, Germany). Each of these kinases was diluted with a suitable buffer solution as described below, and then mixed with reagents.
(§3) 3-morpholinopropane-1-sulfonic acid (MOPS) and EDTA were dissolved in distilled water at a concentration of 20 mM and 1 mM, respectively, and 100 uL of β-mercaptoethanol, 10 uL of Brij-35™, 5 mL of glycerol, and 100 mg of bovine serum albumin (BSA), each per 100 mL of the solution, were added to the solution, thereby preparing a JAK2, JAK3, and TYK2 dilution buffer solution.
(§4) Each compound was dissolved in a 100% DMSO solution at a 50 uM concentration. This solution was reacted with reagents in wells on a 96-well plate to reach a final concentration of 1 uM. Detailed experimental methods for each kinase are described below.
(§5) After reaction for about 40 minutes at room temperature, the reaction was stopped by adding 5 uL of a 3% (v/v) phosphoric acid solution.
(§6) In Tables 5 and 6, the numbers in the “Example” column, which are identification numbers of the examples, indicate the compounds synthesized in the corresponding examples, the values in the “JAK1”, “JAK2”, “JAK3”, and “TYK2” columns represent kinase-phosphorylation inhibitory levels as a percentage (%) of the compounds synthesized in the corresponding examples at a 1 uM concentration. In Tables 5 and 6, negative values substantially indicate no inhibitory effect.
(§7) The inhibitory levels (% inhibition) represent a percentage of reduction in phosphorylation activity in each test group with respect to the phosphorylation activity of a corresponding kinase in a negative control group lacking any of the compounds synthesized in the examples. % inhibition=[(Scintillation value of Test compound non-treatment group−Scintillation value of Test compound treatment group)/(Scintillation value of Test compound non-treatment group)]×100

The target in the next test is Human JAK2 (Homo sapiens (Human), UniProt O60674). The test is described as follows: In vitro kinase inhibition test, JAK2 (33P-ATP filter scintillation). Particulars: compound at 1 uM; read-out: JAK2 kinase-phosphorylation inhibitory level (% inhibition). The procedure: as §1, §2, §3, §4, §5, §6, §7
For another test, the target named is Human JAK3 (Homo sapiens (Human), UniProt P52333). The test is described as follows: In vitro kinase inhibition test, JAK3 (33P-ATP filter scintillation). To be noted: compound at 1 uM; read-out: JAK3 kinase-phosphorylation inhibitory level (% inhibition). The procedure:
as §1, §2, §3, §4, §5, §6, §7

The next test concerns the target Human JAK1 (Homo sapiens (Human), UniProt P23458). As to the kind of experiment: In vitro kinase inhibition test, JAK1 (33P-ATP filter scintillation). To be noted: compound at 1 uM; read-out: JAK1 kinase-phosphorylation inhibitory level (% inhibition). The method, then: as §1, §2
Tris(hydroxymethyl)aminomethane (TRIS) and ethylenediaminetetraacetic acid (EDTA) were dissolved in distilled water at a concentration of 20 mM and 0.2 mM, respectively, and 100 uL of β-mercaptoethanol, 10 uL of Brij-35™, and 5 mL of glycerol, each per 100 mL of the solution, were added to the solution, thereby preparing a JAK1 dilution buffer solution.
as §4
After reaction for about 40 minutes at room temperature, the reaction was stopped by adding 5 uL of a 3% (v/v) phosphoric acid solution. […] The methanol drying is a drying process using an azeotropic effect, wherein methanol is added into an aqueous solution for drying.
as §6, §7

Human JAK2, sequence (O60674 whole entry): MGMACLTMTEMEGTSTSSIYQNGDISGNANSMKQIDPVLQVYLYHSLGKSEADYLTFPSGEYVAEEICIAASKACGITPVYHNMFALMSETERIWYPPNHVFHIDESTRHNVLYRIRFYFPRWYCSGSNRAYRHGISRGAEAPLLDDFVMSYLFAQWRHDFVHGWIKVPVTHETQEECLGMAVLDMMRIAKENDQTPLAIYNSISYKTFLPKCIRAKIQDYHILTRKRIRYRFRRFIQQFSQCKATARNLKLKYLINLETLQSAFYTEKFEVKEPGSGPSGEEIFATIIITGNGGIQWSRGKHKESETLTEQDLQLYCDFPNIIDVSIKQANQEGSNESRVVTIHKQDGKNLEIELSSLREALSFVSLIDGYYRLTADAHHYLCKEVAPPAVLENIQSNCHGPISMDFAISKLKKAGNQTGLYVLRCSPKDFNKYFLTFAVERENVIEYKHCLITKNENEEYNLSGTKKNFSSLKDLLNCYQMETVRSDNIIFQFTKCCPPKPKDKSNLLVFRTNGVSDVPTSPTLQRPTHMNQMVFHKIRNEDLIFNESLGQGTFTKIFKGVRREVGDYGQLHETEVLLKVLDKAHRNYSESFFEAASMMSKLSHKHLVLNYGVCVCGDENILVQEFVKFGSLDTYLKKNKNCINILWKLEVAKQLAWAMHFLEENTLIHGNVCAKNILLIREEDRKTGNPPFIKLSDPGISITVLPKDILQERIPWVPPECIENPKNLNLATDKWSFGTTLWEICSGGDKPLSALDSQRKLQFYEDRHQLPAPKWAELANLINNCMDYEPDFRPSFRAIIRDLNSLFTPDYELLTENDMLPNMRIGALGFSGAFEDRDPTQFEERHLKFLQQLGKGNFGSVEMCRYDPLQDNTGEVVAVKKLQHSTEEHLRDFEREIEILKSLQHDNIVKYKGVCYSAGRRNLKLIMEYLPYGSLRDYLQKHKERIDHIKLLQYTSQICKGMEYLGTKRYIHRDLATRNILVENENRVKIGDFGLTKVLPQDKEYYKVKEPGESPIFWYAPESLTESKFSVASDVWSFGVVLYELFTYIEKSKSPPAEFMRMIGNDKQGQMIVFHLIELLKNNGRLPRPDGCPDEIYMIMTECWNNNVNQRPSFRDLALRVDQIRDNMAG
Human JAK1, sequence (P23458 whole entry): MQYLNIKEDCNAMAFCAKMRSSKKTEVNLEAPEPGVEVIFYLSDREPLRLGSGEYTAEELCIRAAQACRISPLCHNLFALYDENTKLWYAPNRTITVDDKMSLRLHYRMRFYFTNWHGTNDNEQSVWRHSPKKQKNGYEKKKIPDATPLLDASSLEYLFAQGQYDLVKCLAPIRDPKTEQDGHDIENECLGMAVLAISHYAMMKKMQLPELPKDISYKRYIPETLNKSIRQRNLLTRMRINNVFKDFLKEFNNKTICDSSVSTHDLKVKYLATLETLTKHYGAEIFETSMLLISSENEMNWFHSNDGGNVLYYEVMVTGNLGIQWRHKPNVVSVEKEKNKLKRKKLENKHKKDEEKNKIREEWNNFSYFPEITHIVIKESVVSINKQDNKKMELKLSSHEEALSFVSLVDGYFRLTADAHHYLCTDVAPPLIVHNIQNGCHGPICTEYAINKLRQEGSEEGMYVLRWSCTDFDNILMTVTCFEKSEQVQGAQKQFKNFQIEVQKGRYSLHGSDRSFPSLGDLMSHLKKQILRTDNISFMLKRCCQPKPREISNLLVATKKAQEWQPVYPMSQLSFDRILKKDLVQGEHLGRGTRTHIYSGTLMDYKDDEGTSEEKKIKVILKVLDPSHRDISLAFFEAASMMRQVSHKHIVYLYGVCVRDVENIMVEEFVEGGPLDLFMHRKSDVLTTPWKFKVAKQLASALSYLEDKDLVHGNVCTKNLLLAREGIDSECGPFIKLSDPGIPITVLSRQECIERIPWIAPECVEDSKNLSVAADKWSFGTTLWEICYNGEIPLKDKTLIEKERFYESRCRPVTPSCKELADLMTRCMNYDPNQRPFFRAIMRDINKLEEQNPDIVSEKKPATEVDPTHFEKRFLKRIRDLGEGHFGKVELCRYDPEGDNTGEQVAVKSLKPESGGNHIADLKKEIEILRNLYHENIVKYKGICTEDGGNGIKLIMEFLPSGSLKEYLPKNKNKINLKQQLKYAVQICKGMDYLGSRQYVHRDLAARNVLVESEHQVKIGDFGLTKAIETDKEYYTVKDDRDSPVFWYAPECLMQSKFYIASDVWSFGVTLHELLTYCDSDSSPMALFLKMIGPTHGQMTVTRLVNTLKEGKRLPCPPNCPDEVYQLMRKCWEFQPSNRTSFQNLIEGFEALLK
Human JAK3, sequence (P52333 whole entry): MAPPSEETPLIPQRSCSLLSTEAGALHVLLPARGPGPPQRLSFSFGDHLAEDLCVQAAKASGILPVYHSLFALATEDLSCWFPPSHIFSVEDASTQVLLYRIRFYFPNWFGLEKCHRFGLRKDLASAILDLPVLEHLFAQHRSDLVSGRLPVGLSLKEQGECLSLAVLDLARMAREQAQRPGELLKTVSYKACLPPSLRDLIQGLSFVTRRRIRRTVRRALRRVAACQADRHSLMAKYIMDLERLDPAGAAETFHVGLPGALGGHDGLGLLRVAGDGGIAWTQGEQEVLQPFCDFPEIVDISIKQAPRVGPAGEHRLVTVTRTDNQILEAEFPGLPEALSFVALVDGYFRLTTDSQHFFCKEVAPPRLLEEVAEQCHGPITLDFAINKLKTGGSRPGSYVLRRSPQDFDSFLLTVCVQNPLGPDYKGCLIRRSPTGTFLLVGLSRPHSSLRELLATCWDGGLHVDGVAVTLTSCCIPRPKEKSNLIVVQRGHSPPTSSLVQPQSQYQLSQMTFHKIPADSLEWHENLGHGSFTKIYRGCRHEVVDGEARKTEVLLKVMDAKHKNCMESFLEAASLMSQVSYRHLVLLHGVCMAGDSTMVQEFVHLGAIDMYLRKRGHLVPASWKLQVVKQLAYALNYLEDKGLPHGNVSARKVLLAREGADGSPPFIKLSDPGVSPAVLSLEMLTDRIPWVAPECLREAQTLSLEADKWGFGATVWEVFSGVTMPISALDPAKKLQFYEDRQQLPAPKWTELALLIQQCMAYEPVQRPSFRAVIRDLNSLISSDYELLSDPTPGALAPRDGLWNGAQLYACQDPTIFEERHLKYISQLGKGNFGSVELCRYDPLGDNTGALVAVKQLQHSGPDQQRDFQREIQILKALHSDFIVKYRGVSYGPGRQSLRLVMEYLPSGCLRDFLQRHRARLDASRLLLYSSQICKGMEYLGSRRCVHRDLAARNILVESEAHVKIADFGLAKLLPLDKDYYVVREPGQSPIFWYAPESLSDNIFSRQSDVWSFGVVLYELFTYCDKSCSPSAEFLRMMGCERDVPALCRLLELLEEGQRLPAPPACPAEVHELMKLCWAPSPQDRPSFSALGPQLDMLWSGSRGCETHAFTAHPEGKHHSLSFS
Human TYK2, sequence (P29597 whole entry): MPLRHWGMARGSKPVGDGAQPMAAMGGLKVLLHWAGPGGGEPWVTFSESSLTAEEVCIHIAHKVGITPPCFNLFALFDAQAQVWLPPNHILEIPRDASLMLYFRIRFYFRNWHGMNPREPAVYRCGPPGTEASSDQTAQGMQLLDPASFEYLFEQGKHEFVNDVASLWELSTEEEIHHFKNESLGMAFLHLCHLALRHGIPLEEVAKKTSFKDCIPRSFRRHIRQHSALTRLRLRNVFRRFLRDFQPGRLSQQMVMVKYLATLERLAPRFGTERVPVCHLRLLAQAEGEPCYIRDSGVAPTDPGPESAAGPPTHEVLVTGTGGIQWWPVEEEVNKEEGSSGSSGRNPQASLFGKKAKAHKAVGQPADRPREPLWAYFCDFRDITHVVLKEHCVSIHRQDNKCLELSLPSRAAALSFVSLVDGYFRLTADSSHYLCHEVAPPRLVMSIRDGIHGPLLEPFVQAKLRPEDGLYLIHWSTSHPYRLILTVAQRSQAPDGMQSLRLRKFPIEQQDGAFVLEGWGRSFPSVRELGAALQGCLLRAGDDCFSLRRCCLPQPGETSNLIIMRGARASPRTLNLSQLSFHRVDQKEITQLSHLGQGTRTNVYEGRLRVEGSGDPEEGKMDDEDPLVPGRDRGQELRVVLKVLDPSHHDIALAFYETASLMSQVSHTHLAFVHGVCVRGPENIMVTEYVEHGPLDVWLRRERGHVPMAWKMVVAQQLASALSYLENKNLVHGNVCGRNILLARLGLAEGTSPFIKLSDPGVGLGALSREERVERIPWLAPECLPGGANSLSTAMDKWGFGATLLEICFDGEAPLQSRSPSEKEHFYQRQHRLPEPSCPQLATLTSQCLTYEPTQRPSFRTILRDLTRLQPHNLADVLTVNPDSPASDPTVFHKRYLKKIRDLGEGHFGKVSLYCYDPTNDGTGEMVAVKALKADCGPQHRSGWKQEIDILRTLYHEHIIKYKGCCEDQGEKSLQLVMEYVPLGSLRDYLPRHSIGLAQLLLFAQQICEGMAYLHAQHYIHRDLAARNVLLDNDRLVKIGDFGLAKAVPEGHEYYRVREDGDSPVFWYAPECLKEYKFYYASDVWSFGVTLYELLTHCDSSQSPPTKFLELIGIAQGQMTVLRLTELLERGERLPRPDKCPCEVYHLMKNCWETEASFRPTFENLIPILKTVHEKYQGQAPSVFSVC

For `CCC(=O)N1CC(N(C)c2ncnc3[nH]ccc23)C2(CC2)C1` (stereo not drawn) [Example 52, 1-(7-(methyl(7H-pyrrolo[2,3-d]pyrimidin-4-yl)amino)-5-azaspiro[2.4]heptan-5-yl)propan-1-one], the inhibition – broadly, the relative decrease from the control value, in per cent – at 1 µM was 20% at Human TYK2, -22% at Human JAK2, 17% at Human JAK3 and 58% on Human JAK1.
Consider `CN(c1ncnc2[nH]ccc12)[C@H]1CN(S(=O)(=O)c2ccc([N+](=O)[O-])cc2)CC12CC2` [Example 45, (R)-N-methyl-N-(5-((4-nitrophenyl)sulfonyl)-5-azaspiro[2.4]heptan-7-yl)-7H-pyrrolo[2,3-d]pyrimidin-4-amine], for which the inhibition at 1 µM on Human TYK2 amounted to 88%; at Human JAK2, 84%; on Human JAK3 it was 60%; on Human JAK1 it was 100%.
Take `CN(c1ncnc2[nH]ccc12)[C@H]1CN(C(=O)c2cccc(C#N)c2)CC12CC2` [Example 15, (R)-3-(7-(methyl(7H-pyrrolo[2,3-d]pyrimidin-4-yl)amino)-5-azaspiro[2.4]heptane-5-carbonyl)benzonitrile]: the inhibition at 1 µM on Human TYK2 is 43%; at Human JAK2, -15%; at Human JAK3, 13%; on Human JAK1 it was 76%.
The like results for `CC(C)COC(=O)N1C[C@@H](N(C)c2ncnc3[nH]ccc23)C2(CC2)C1` [Example 70, isobutyl (S)-7-(methyl(7H-pyrrolo[2,3-d]pyrimidin-4-yl)amino)-5-azaspiro[2.4]heptane-5-carboxylate] were, in that order, 5%, 24%, -3% and 31%.
Turning to `CC(C)COC(=O)N1CC(N(C)c2ncnc3[nH]ccc23)C2(CC2)C1` (stereo not drawn) [Example 61, isobutyl 7-(methyl(7H-pyrrolo[2,3-d]pyrimidin-4-yl)amino)-5-azaspiro[2.4]heptane-5-carboxylate], the inhibition at 1 µM at Human TYK2 is 22%; at Human JAK2 it was -9%; at Human JAK3, 29%; at Human JAK1, 85%.
`CN(c1ncnc2[nH]ccc12)C1CN(S(=O)(=O)CCN)CC12CC2` (stereo not drawn) [Example 63, N-(5-((2-aminoethyl)sulfonyl)-5-azaspiro[2.4]heptan-7-yl)-N-methyl-7H-pyrrolo[2,3-d]pyrimidin-4-amine]: the inhibition at 1 µM on Human TYK2 is 29%; on Human JAK2 it was 43%; at Human JAK3, 7%; at Human JAK1, 91%.
Turning to `CC(=O)NCC(=O)N1CC(N(C)c2ncnc3[nH]ccc23)C2(CC2)C1` (stereo not drawn) [Example 56, N-(2-(7-(methyl(7H-pyrrolo[2,3-d]pyrimidin-4-yl)amino)-5-azaspiro[2.4]heptan-5-yl)-2-oxoethyl)acetamide], the inhibition at 1 µM at Human TYK2 was -10%; on Human JAK2, -37%; on Human JAK3, 9%; on Human JAK1, 9%.
As to `CN(c1ncnc2[nH]ccc12)[C@H]1CN(C(=O)c2ccccc2)CC12CC2` [Example 13, (R)-(7-(methyl(7H-pyrrolo[2,3-d]pyrimidin-4-yl)amino)-5-azaspiro[2.4]heptan-5-yl)(phenyl)methanone], the inhibition at 1 µM was 30% on Human TYK2, -11% at Human JAK2, 13% at Human JAK3 and 81% on Human JAK1.
As for `CCC(=O)N1C[C@@H](N(C)c2ncnc3[nH]ccc23)C2(CC2)C1` [Example 64, (S)-1-(7-(methyl(7H-pyrrolo[2,3-d]pyrimidin-4-yl)amino)-5-azaspiro[2.4]heptan-5-yl)propan-1-one], the inhibition at 1 µM was 0% on Human TYK2, -9% at Human JAK2, -1% on Human JAK3 and 16% on Human JAK1.
Regarding `CN(c1ncnc2[nH]ccc12)[C@H]1CN(C(=O)Nc2ccc(F)cc2)CC12CC2` [Example 24, (R)-N-(4-fluorophenyl)-7-(methyl(7H-pyrrolo[2,3-d]pyrimidin-4-yl)amino)-5-azaspiro[2.4]heptane-5-carboxamide], the inhibition at 1 µM at Human TYK2 worked out at 47%; at Human JAK2, 6%; at Human JAK3 it was 48%; on Human JAK1, 94%.
As for `CNC(=O)CC(=O)N1CC(N(C)c2ncnc3[nH]ccc23)C2(CC2)C1` (stereo not drawn) [Example 57, N-methyl-3-(7-(methyl(7H-pyrrolo[2,3-d]pyrimidin-4-yl)amino)-5-azaspiro[2.4]heptan-5-yl)-3-oxopropanamide], the inhibition at 1 µM at Human TYK2 is 11%; at Human JAK2, 7%; on Human JAK3, -9%; at Human JAK1, 55%.
On the same counts, the results for `CNC(=O)CC(=O)N1C[C@@H](N(C)c2ncnc3[nH]ccc23)C2(CC2)C1` [Example 67, (S)-N-methyl-3-(7-(methyl(7H-pyrrolo[2,3-d]pyrimidin-4-yl)amino)-5-azaspiro[2.4]heptan-5-yl)-3-oxopropanamide] are -4%, -7%, 0% and 5%.
For `CN(c1ncnc2[nH]ccc12)[C@H]1CN(C(=O)Nc2ccccc2)CC12CC2` [Example 23, (R)-7-(methyl(7H-pyrrolo[2,3-d]pyrimidin-4-yl)amino)-N-phenyl-5-azaspiro[2.4]heptane-5-carboxamide], the inhibition at 1 µM at Human TYK2 is 78%; at Human JAK2, 52%; on Human JAK3 it was 50%; on Human JAK1, 98%.
For `CN(c1ncnc2[nH]ccc12)[C@H]1CN(C(=S)Nc2cc(C(F)(F)F)cc(C(F)(F)F)c2)CC12CC2` [Example 31, (R)-N-(3,5-bis(trifluoromethyl)phenyl)-7-(methyl(7H-pyrrolo[2,3-d]pyrimidin-4-yl)amino)-5-azaspiro[2.4]heptane-5-carbothioamide], the inhibition at 1 µM is 1% on Human TYK2, -26% at Human JAK2, 13% at Human JAK3 and 62% on Human JAK1.
Take `CN(c1ncnc2[nH]ccc12)[C@H]1CN(S(=O)(=O)c2ccccc2[N+](=O)[O-])CC12CC2` [Example 43, (R)-N-methyl-N-(5-((2-nitrophenyl)sulfonyl)-5-azaspiro[2.4]heptan-7-yl)-7H-pyrrolo[2,3-d]pyrimidin-4-amine]: the inhibition at 1 µM at Human TYK2 was 78%; on Human JAK2, 70%; on Human JAK3 it was 75%; on Human JAK1, 97%.
Regarding `CN(c1ncnc2[nH]ccc12)[C@H]1CN(C(=O)c2cccc(C(F)(F)F)c2)CC12CC2` [Example 18, (R)-(7-(methyl(7H-pyrrolo[2,3-d]pyrimidin-4-yl)amino)-5-azaspiro[2.4]heptan-5-yl)(3-(trifluoromethyl)phenyl)methanone], the inhibition at 1 µM is 37% at Human TYK2, -17% on Human JAK2, 5% at Human JAK3 and 71% on Human JAK1.
`CN(c1ncnc2[nH]ccc12)[C@H]1CN(C(=O)c2ccccc2C(F)(F)F)CC12CC2` [Example 17, (R)-(7-(methyl(7H-pyrrolo[2,3-d]pyrimidin-4-yl)amino)-5-azaspiro[2.4]heptan-5-yl)(2-(trifluoromethyl)phenyl)methanone]: the inhibition at 1 µM on Human TYK2 is 39%; on Human JAK2, -14%; at Human JAK3 it was -1%; at Human JAK1, 65%.
For the compound `CN(c1ncnc2[nH]ccc12)[C@H]1CN(S(=O)(=O)c2ccc(F)cc2)CC12CC2` [Example 39, (R)-N-(5-((4-fluorophenyl)sulfonyl)-5-azaspiro[2.4]heptan-7-yl)-N-methyl-7H-pyrrolo[2,3-d]pyrimidin-4-amine], the inhibition at 1 µM worked out at 93% on Human TYK2, 95% at Human JAK2, 65% at Human JAK3 and 99% on Human JAK1.
